Measured values as given in patent publication US20110046070A1, “GENE EXPRESSION INHIBITOR SELECTIVE FOR MATRIX METALLOPROTEINASE-9 GENE” (priority 2008, published 2011).

Legend:
[1] = system: double-stranded DNA of the region from −77 to −70 containing the AP-1 binding site of the human matrix metalloproteinase-9 promoter; assay: Gel shift assay (EMSA), AP-1 site oligonucleotide; details: 10 μM polyamide, 0.6 μM fluorescently labeled double-stranded DNA, 37° C., 1 hour
Protocol: (§1) Oligonucleotides were synthesized and annealed to form 2 kinds of double-stranded oligonucleotides corresponding to the promoter base pairs against HMMP9AP1 and HMMP9NFκβ. One single-stranded oligonucleotide was labeled with FITC and hybridized with another single-stranded oligonucleotide as a complementary sequence to prepare double-stranded DNA. Specifically, nucleotides having the following nucleotide sequences were prepared: HMMP9AP1 (match) sense primer (5′[…]) (SEQ ID NO: 8) corresponding to the region from −77 to −70 containing the AP-1 binding site; this sequence plus 2-base mutation, i.e., HMMP9AP1 oligo DNA (mismatch 1) sense primer (5′[…]) (SEQ ID NO: 9); HMMP9NFκβ (match) sense primer (5′[…]) (SEQ ID NO: 10) containing the region from −605 to −599 containing the NFκβ binding site; this sequence plus 2-base mutation, i.e., HMMP9NFκβ (mismatch 1) sense primer (5′[…]) (SEQ ID NO: 11); and antisense primers respectively complementary to these 4 primers. […] The obtained complexes were electrophoresed on a 20% polyacrylamide gel, and the mobilities of the fluorescently labeled double-stranded oligonucleotides were analyzed with a fluorescent image analyzer (FUJIFILM, LAS-4000, Tokyo, Japan). […]

[2] = system: double-stranded DNA of the region from −605 to −599 containing the NFκβ binding site of the human matrix metalloproteinase-9 promoter; assay: Gel shift assay (EMSA), NFκβ site oligonucleotide; details: 10 μM polyamide, 0.6 μM fluorescently labeled double-stranded DNA, 37° C., 1 hour
Protocol: as §1

[3] = system: binding of NF-κβ protein with the MMP-9 promoter region; assay: Immunoprecipitation/PCR assay with anti-NF-κβ antibodies; type: cell-based, human; details: 1 μM, 4 hours, MDA-MB-231 and HeLa cells
Protocol: Immunoprecipitation/PCR assay with anti-NF-κβ antibodies was conducted using MDA-MB-231 and HeLa cells. The MDA-MB-231 and HeLa cells were separately inoculated to a 100-mm culture dish and cultured for 24 hours in […] of Dulbecco's modified Eagle medium (DMEM) containing 10% fetal bovine serum (Invitrogen) and then with 1 μM match polyamide HMMP9NFκβ or 1 μM mismatch polyamide (shown in FIG. 26) for 4 hours. Protein-DNA complexes were fixed in 1% formaldehyde, reacted with specific NF-κB p65 antibodies and nonspecific rabbit immunoglobulin G antibodies, and collected by precipitation as antibody-protein-DNA complexes using Protein A beads. From the protein-DNA complexes, DNA was separated through reaction with 5 M NaCl and subjected to amplification reaction using PCR primers flanking the NFκβ binding sequence of MMP9. The NFκβ-bound DNA of an MMP9 gene promoter region is identified as a PCR product.
An MMP-9 promoter region from −657 to −484 was amplified using PCR primers (forward: 5′-TGTCCCTTTACTGCCCTGA-3′ (SEQ ID NO: 20) and reverse: 5′-[…]-3′ (SEQ ID NO: 21)) (Schwingshackl A, Duszyk M, Brown N, Moqbel R. HμMan eosinophils release matrix metalloproteinase-9 on stimulation with TNF-α. J Allergy Clin Immunol 104: 983-989, 1999).

[4] = system: liver metastasis of human colon cancer cell strain HT29 transplanted in the spleen; assay: Nude mouse models with liver metastasis from human colon cancer; type: in vivo, nude mice; details: HT29 cells cultured 1 hour with 10 μM polyamide, splenic transplantation, 6 weeks
Protocol: 5-week-old male nude mice (BALB/c Nude Mice CBy.Cg-Foxn1nu/J) (Jackson Laboratory) were purchased, maintained in a pathogen-free environment until 6 week olds, and used in the experiment. A human colon cancer cell strain HT29 was monolayer-cultured in a 100-cm^2 cell culture flask and treated with 0.05% trypsin and 0.02% EDTA solutions before reaching confluence. The cells were collected, centrifuged at 800 rpm for 3 minutes, then washed with PBS containing neither Ca^2+ nor Mg^2+, and cultured for 1 hour in a culture solution adjusted to a polyamide concentration of 10 μM or a polyamide-free culture solution. Then, a cell suspension having a concentration of 3×10^6 cells in 100 μl again was prepared using PBS. The thus-prepared 3 groups of the cells containing HMMP9NFκβ polyamide, containing mismatch polyamide and in polyamide-free PBS were separately administered to the nude mice (6 individuals/group). Longitudinal incision was made in the skin on the left side of the abdominal regions of the nude mice under anesthesia. After peritoneotomy to the spleen, 100 μl of the colon cancer cell suspension was transplanted to the splenic subcapsular region using a 29-G injection needle (FIG. 29A). The reliable splenic subcapsular transfer of the cell grafts was confirmed based on change in the color tone of the cell-transplanted site through the splenic capsule and the absence of bleeding or leakage of the suspension. After the transplantation, the mice were raised for 6 weeks and subjected to autopsy. The livers and the spleens were extracted, fixed in a 10% buffered formalin solution, then histologically stained with hematoxylin eosin, and subjected to microscopic observation. […] The liver metastatic foci are circled in the preparations.

SMILES	binding to target double-stranded DNA (mobility versus lanes containing only DS) [1]	binding to target double-stranded DNA (mobility versus lanes containing only DS) [2]	NF-κβ p65-NF-κβ binding region complex of the MMP-9 promoter in immunoprecipitation with anti-NF-κβ p65 antibodies [3]	area of liver metastatic foci [4]	number of liver metastatic foci [4]	size of liver metastatic foci [4]
CC(=O)Nc1cn(C)c(C(=O)Nc2cc(C(=O)NCCC(=O)Nc3cn(C)c(C(=O)Nc4cc(C(=O)Nc5cc(C(=O)NCCCC(=O)Nc6cn(C)c(C(=O)Nc7cn(C)c(C(=O)Nc8cc(C(=O)NCCC(=O)Nc9cn(C)c(C(=O)Nc%10cc(C(=O)NCCC(=O)NCCCN(C)C)n(C)c%10)n9)n(C)c8)n7)n6)n(C)c5)n(C)c4)n3)n(C)c2)n1 [HMMP9AP1]	lower mobility	–	–	–	–	–
CC(=O)Nc1cc(C(=O)Nc2cc(C(=O)NCCC(=O)Nc3cc(C(=O)Nc4cc(C(=O)NCCCC(=O)Nc5cn(C)c(C(=O)Nc6cn(C)c(C(=O)NCCC(=O)Nc7cc(C(=O)Nc8cc(C(=O)NCCC(=O)NCCCN(C)C)n(C)c8)n(C)c7)n6)n5)n(C)c4)n(C)c3)n(C)c2)n(C)c1 [HMMP9NFκβ]	–	lower mobility	not detected	small	distinctly small	distinctly small
